| melting point [°C] | Structure (SMILES) |
| --- | --- |
| 228 to 230 | CNc1nc(-c2cncc(Br)c2)c2cc(OC)c(OC)cc2n1 |
| 149 to 152 | CC(C)Oc1ccccc1Oc1ccc(NC(=O)N2CCc3ccccc3CC2)cn1 |
| 182 | Cc1ccc(-c2c(Cl)ncn2-c2ccc(S(C)(=O)=O)cc2)cc1 |
| 119 to 120 | Cc1cc(NS(=O)(=O)c2ccccc2)cnc1CCCC#N |
| 203 to 205 | COc1ccc2c(c1)CC(=O)NC2c1ccccc1Cl (centres undefined) |
| 139 to 141 | CC(=O)c1cc(Cc2ccccc2)c(O)c2ccccc12 |
| 83.7 to 85.9 | CC(=O)NC[C@H]1CN(c2ccc(-n3nccc3-c3cccnc3)c(F)c2)C(=O)O1 |
| 155 to 156 | CC(=O)Nc1ccc(OC(C)=O)c(C)c1C |
| 247 to 250 | Cn1c(=O)[nH]c2cc(Cl)cc(Cl)c2c1=O |
| 65 to 67 | CCOC(=O)c1cc2ccccc2n1CC#N |
| 136 to 138 | CCCC(=O)Nc1c(C)c(C)c2c(c1C)CC(C)(C)O2 |
| 81 to 83 | COc1cc(OCCCN2CCOCC2)c(C=CC(=O)c2ccc(C(N)=O)cc2)cc1-c1cccs1 |
| 62 to 63 | CC(C)OC(=O)Cc1nc(-c2ccccc2)oc1-c1ccsc1 |
| 169 to 171 | CC(=O)Nc1c(C(=O)c2ccc(Cl)c(Cl)c2)[nH]c2cc(Cl)ccc12 |
| 246 to 248 | CNS(=O)(=O)c1c[nH]c(-c2ccc(Cl)cc2)n1 |
| 143 to 144 | COc1cc(NC(=O)C(C)(C)C)ccc1C(=O)N(C)C |
| 190 to 192 | O=C(O)C(Sc1nc2cc(Cl)ccc2s1)c1ccccc1 (centres undefined) |
| 124 to 126 | CC(=O)OC(OC(C)=O)c1ccc([N+](=O)[O-])cc1 |
| 190 to 192 | COCCO[C@@H]1c2ccn3c(-c4ccccc4)c(C)nc3c2N[C@H](c2ccccc2)[C@H]1O |
| 97 to 103 | COC(=O)C=Cc1ccc(OCC(C)NCC(O)c2cccc(Cl)c2)cc1 (centres undefined) |
| 100 to 101 | CC(=O)NCc1ccc(CN2CCN(c3ccccn3)CC2)cc1 |
| 253 to 255 | CC(C)[C@H](NC(=O)OCc1ccccc1)C(=O)NNS(=O)(=O)c1ccccc1 |
| 133 to 134 | COC(=O)c1cc2c(C)ccc(Cl)c2[nH]1 |

| melting point [°C] | Structure (SMILES) |
| --- | --- |
| 138 to 140 | COCCc1cccc2oc(C(=O)O)c(C)c12 |
| 139 to 140 | CCN(CC)CCCOc1ccc(NC(=O)c2ccccc2)cc1NC(=O)c1ccccc1 |
| 140 | O=c1cc(COC2CCCCO2)occ1OCCCCCBr (centres undefined) |
| 127 | CCCC(CCC)C(=O)NC(=O)CN |
| 133 to 135 | O=C(CCCCN1CCCC1)NNC(=O)N1Cc2ccccc2Oc2ccc(Cl)cc21 |
| 141 to 142 | Cc1cccc(C(=O)O)c1Cl |
| 266 | O=C(NC(Cc1ccc(F)cc1)C(=O)O)c1cn2cc(-c3ccc(Cl)cc3)ccc2n1 (centres undefined) |
| 54 to 56 | COC1=CC(=O)OC1=C(COC(C)=O)C(C)C(C)=O (centres undefined) |
| 116 to 124 | CCC(=O)Nc1ccnn1-c1ncc(Cl)cc1Cl |
| 114 to 116 | CCOC(=O)c1c(CCCn2cncn2)nc2sc3c(c2c1-c1ccc(OC)c(OC)c1)CCN(C(=O)c1ccc(Cl)cc1)C3 |
| 232 | N#CC1=C(c2cccs2)Nc2n[nH]cc2C1c1cccc(Cl)c1Cl (centres undefined) |
| 142 to 144 | CN(C)CCCC1CCCCN1C(=O)N1c2ccccc2C(=O)Nc2cccnc21 (centres undefined) |
| 228 to 230 | N#CCCNC(=O)c1n[nH]cc1NC(=O)c1ccc(-c2ccccc2)o1 |
| 254 to 255 | NS(=O)(=O)c1ccc(-n2nc(C(F)(F)F)cc2-c2nc3ccc(Cl)cc3s2)cc1 |
| 144 to 145 | CC(C)C(=O)C(O)(Cc1ccc(Cl)cc1Cl)c1cccnc1 (centres undefined) |
| 146 to 147 | N#Cc1ccc(-c2nc(CCl)co2)s1 |
| 91.9 | C#CCOc1cc(Oc2cccc(Cl)c2Cl)ncn1 |
| 120 to 123 | COc1cc(OC)nc(C2OC(=O)c3c(-c4cccs4)ccnc32)n1 (centres undefined) |
| 141 to 144 | CC(O)(c1ccccc1)c1ccncc1 (centres undefined) |
| 118 | C(=C\c1nc2ccccc2n1-c1cccnc1)/c1ccccc1 |
| 223 | CS(=O)(=O)c1ccc(-n2cnc(Cl)c2-c2ccc(Cl)nc2)cc1 |
| 246 | CC(=O)N[C@@H]1CCN(S(=O)(=O)c2ccc(Cl)c(COc3cccc4c(-n5ccnc5)cc(C)nc34)c2Cl)C1 |
| 178 | O=C(O)CCCc1cc2nc(Cl)ccc2n1S(=O)(=O)c1ccc2ncsc2c1 |

| melting point [°C] | Structure (SMILES) |
| --- | --- |
| 107 | Nc1ccc(C(=O)c2cccnc2)cc1 |
| 119 to 120 | COC1(c2ccc(Sc3ccc4c(ccc(=O)n4C)c3)s2)CCOCC1 |
| 155 to 158 | COc1nc2ccc([N+](=O)[O-])cc2nc1Cl |
| 79 to 81 | C[C@@H]1CC=C(S(=O)(=O)c2ccccc2)[C@H](O)C1 |
| 281 to 284 | CCCn1c(=O)c2[nH]c(/C=C/c3ccc(OC)cc3)nc2n(CCC)c1=O |
| 245 to 247 | CCCc1[nH]c2cc(C(N)=O)ccc2c1C(=O)C1CCCCC1 |
| 46 to 50 | O=C(Cl)c1cnoc1-c1ccc(Cl)cc1Cl |
| 106 to 108 | CCc1cc(O)cc(=O)o1 |
| 268 | COC(=O)CCCCCCC(=O)Nc1ccc(C(=O)NN=C2C(=O)Nc3ccc(I)cc32)cc1 |
| 171 | COC(=O)C1(Cc2ccc(Br)cc2)CCCN1C(=O)Nc1cc(Cl)cc(Cl)c1 (centres undefined) |
| 119 to 121 | Nc1ccc(SCc2cnc3ccccn23)cc1 |
| 156 to 163 | CC(=O)c1c(C)[nH]c(CC(C)(C)C)c1C |
| 148 to 149 | Cc1cc(C)cc(C(=O)N2CC[C@H](NCc3ccnc4ccccc34)C[C@H]2Cc2ccc(Cl)cc2)c1 (relative stereo) |
| 52 to 54 | COc1ccc(CCNC(=O)[C@@H](N)C(C)C)cc1OC |
| 92 | Cc1cc(CBr)nc2ccccc12 |
| 76 to 77 | CCCc1cccc(N(CC(=O)OC)NC(=O)NC)c1 |
| 155 to 160 | NCC1CCC(CNc2ncc3ncnc(Nc4ccc(F)c(Cl)c4)c3n2)CC1 (centres undefined) |
| 84 to 86 | CCOC(=O)C1=C(C)NC(CF)=C(C(=O)OCC)C1c1ccccc1C(F)(F)F (centres undefined) |
| 52 to 53 | CCOC(=O)N(CCOc1ccc(Oc2ccc(F)cc2)cc1)C(=O)OCC |
| 124 | CCOc1ccccc1C=[N+]([O-])C1CCCCC1 |
| 190 to 193 | N#CC(=C(Nc1cc(C(F)(F)F)cc(C(F)(F)F)c1)NC1CCC1)S(=O)(=O)c1ccc(Cl)cc1 |
| 146 to 148 | COc1ccc(C(CC(=O)O)N2Cc3ccccc3C2=O)cc1OC (centres undefined) |
| 106 to 109 | CC(CC(C)(C)c1ccccc1)N=C(O)C(Cl)=C(Cl)C(=O)O (centres undefined) |

| Structure (SMILES) | melting point [°C] |
| --- | --- |
| CCCCSc1ccc(C(O)CNC2CCCCC2)cc1C (centres undefined) | 136 |
| CN1CC[C@@H]2CC(=O)c3cc(F)c(F)cc3[C@@H]2C1 (relative stereo) | > 250 |
| C[C@H]1C(=O)C[C@@H]2C[C@H]1OO[C@@]2(C)C=O | 92 |
| COc1ccc(C2(CCN3CCC(C(=O)c4nc5ccccc5s4)CC3)CCN(C(=O)c3ccccc3)C2)cc1OC (centres undefined) | 74 to 76 |
| CCCCCn1c(C)c(C(=O)c2ccc(Br)c3ccccc23)c2cccc(OC)c21 | 114 |

Source: a melting point compilation (Tetko et al.; mined from patent text by program, amines drawn as free bases though some values may be those of a salt)
